Read-outs that look alike come from different tables or passages of the source.
Legend:
[1] = tested on: DU4475; assay: Cell-based assay: anti-proliferative activity, Cell Counting Kit-8, 72 hours (DU4475); conditions: Homo sapiens, DU-4475, DU4475 cells
[2] = molecular target: MELK (Homo sapiens, UniProt Q14680); assay: Kinase assay: MELK activity, phosphorylation of FITC-labeled histone H3 peptide measured by IMAP fluorescence polarization; format: biochemical; conditions: read-out: IC50 (μM) (kinase assay)
Summary of the method: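 Fluorescence polarization was measured 0.5 h (room temperature) after quenching with threefold volume of progressive binding solution. Test compounds from 12.5 mM DMSO stocks were assayed at 1% DMSO.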

[3] = tested on: T47D cells; assay: Cell-based assay: anti-proliferative activity, Cell Counting Kit-8, 72 hours (T47D); conditions: Homo sapiens, T47D, 72 h
Summary of the method: (§1)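 Proliferation read with Cell Counting Kit-8 after 72 hours of inhibitor treatment, from seeding of 2,000–3,000 cells/well. Lines: T47D, A549, BT-549; HT-1197, lacking MELK by western blot, served as negative control. IC50 derived.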

[4] = tested on: A549 cells; assay: Cell-based assay: anti-proliferative activity, Cell Counting Kit-8, 72 hours (A549); conditions: Homo sapiens, A549, 72 h, 72 hours
Summary of the method: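 A549 cells seeded in 96-well plates and exposed to candidate inhibitors for 72 hours. Growth measured with Cell Counting Kit-8; IC50 values calculated from the dose response.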

[5] = tested on: HT-1197 cells; assay: Cell-based assay: anti-proliferative activity, Cell Counting Kit-8, 72 hours (HT-1197, negative control without MELK expression); conditions: Homo sapiens, HT1197, 72 h, HT1197 cells (negative control, no MELK expression), 72 hours
Summary of the method: as §1

[6] = 50 micro-M ATP, FITC-labeled histone H3 peptide substrate, IMAP fluorescence polarization

MELK, sequence (Q14680 whole entry, looked up): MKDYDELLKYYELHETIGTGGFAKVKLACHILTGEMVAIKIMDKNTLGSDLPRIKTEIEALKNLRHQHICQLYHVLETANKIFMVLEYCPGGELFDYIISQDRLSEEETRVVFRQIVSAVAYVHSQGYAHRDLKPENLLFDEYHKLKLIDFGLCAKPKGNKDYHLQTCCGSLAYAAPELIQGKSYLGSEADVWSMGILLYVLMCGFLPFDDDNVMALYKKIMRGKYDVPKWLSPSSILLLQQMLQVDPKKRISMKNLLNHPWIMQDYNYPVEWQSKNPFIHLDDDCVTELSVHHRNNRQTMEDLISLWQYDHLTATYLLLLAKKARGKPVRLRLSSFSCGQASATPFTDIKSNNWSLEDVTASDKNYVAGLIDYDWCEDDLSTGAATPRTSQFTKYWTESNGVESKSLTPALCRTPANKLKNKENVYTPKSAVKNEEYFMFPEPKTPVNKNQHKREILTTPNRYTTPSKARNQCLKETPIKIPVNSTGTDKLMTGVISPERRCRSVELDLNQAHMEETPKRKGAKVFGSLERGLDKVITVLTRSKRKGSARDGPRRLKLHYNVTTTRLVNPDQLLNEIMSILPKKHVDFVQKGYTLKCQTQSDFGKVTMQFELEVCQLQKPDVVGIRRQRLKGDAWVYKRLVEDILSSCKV

SMILES	IC50 [1] [µM]	IC50 [2, 6] [µM]	IC50 [3] [µM]	IC50 [4] [µM]	IC50 [5] [µM]	IC50 [2] [µM]
O=C(c1cnc2ccc(-c3cc(F)c(O)c(Cl)c3)cc2c1N1CCN(CCN2CCCC2)CC1)C1CC1 [Example 402, (6-(3-chloro-5-fluoro-4-hydroxyphenyl)-4-(4-(2-(pyrrolidin-1-yl)ethyl)piperazin-1-yl)quinolin-3-yl)(cyclopropyl)methanone]	0.48	0.0058	0.88	1.2	5.1	–
O=C(c1cnc2ccc(-c3cc(Cl)c(O)c(Cl)c3)cc2c1Nc1ccc(N2CCNCC2)nc1)C1CC1 [Example 409, Cyclopropyl{6-(3,5-dichloro-4-hydroxyphenyl)-4-[6-(piperazin-1-yl)pyridin-3-ylamino]quinolin-3-yl}methanone]	0.098	0.0017	0.074	0.26	1.6	–
CC(=O)c1cnc2ccc(-c3cc(Cl)c(O)c(Cl)c3)cc2c1Nc1ccc(CN2CCCC2)cc1 [Example 415, 1-(6-(3,5-dichloro-4-hydroxyphenyl)-4-((4-(pyrrolidin-1-ylmethyl)phenyl)amino)quinolin-3-yl)ethanone]	0.067	0.035	0.12	0.15	10	–
CC(=O)c1cnc2ccc(-c3cnc(C#N)nc3)cc2c1N[C@H]1CC[C@H](CN(C)C)CC1 [Example 418]	0.5	0.0073	0.23	0.95	1.4	–
CN(C)C[C@H]1CC[C@H](Nc2c(S(C)(=O)=O)cnc3ccc(-c4cc(Cl)c(O)c(Cl)c4)cc23)CC1 [Example 420, 2,6-dichloro-4-(4-((1R,4R)-4-((dimethylamino)methyl)cyclohexylamino)-3-(methylsulfonyl)quinolin-6-yl)phenol]	0.14	0.0023	0.47	0.69	2.5	–
CN(C)C[C@H]1CC[C@H](Nc2c(S(C)(=O)=O)cnc3ccc(-c4cc(F)c(O)c(Cl)c4)cc23)CC1 [Example 423]	0.31	0.0063	0.42	0.93	2.4	–
COc1cc(-c2ccc3ncc(C(=O)C4CC4)c(N4CCN(C(=O)CN(C)C)CC4)c3c2)cc(Cl)c1O [Example 437, 1-(4-(6-(3-chloro-4-hydroxy-5-methoxyphenyl)-3-(cyclopropanecarbonyl)quinolin-4-yl)piperazin-1-yl)-2-(dimethylamino)ethanone]	0.22	0.0011	0.28	0.19	1.7	–
COc1cc(-c2ccc3ncc(C(=O)C4CC4)c(-c4ccc(N5CCN(C)CC5)cc4)c3c2)cc(Cl)c1O [Example 438, (6-(3-chloro-4-hydroxy-5-methoxyphenyl)-4-(4-(4-methylpiperazin-1-yl)phenyl)quinolin-3-yl)(cyclopropyl)methanone]	0.49	0.018	0.39	0.25	6.5	–
CCOc1cc(-c2ccc3ncc(C(=O)C4CC4)c(N4CCC(CN(C)C)CC4)c3c2)cc(Cl)c1O [Example 457]	0.21	0.0024	0.22	0.14	2.4	–
O=C(c1cnc2ccc(-c3cc(F)c(O)c(Cl)c3)cc2c1Nc1ccc(CN2CCOCC2)cc1)C1CC1 [Example 460]	0.42	0.083	0.65	0.59	4.2	–
N#Cc1ncc(-c2ccc3ncc(C(=O)C4CC4)c(Nc4ccc(CN5CCOCC5)cc4)c3c2)cn1 [Example 461]	0.41	0.015	0.17	1.6	2	–
COc1cc(-c2ccc3ncc(C(=O)C4CC4)c(Nc4ccc(CN5CCOCC5)cc4)c3c2)cc(Cl)c1O [Example 462]	1.1	0.066	0.44	0.7	6	–
CN(C)CC(=O)N1CC2CC1CN2c1c(C(=O)C2CC2)cnc2ccc(-c3ccc(O)c(Cl)c3)cc12 (centres unmarked) [Example 464]	3.4	0.051	6.6	5.5	17	–
CN(C)CC1CCN(c2c([S+](C)[O-])cnc3ccc(-c4ccc(O)c(Cl)c4)cc23)CC1 (centres unmarked) [Example 466]	1.1	0.016	0.67	1.9	6.7	–
CN(C)CC1CCN(c2c([S+](C)[O-])cnc3ccc(-c4cc(F)c(O)c(Cl)c4)cc23)CC1 (centres unmarked) [Example 467]	1.2	–	1.5	13	35	0.011
COc1cc(-c2ccc3ncc([S+](C)[O-])c(N4CCC(CN(C)C)CC4)c3c2)cc(Cl)c1O (centres unmarked) [Example 468]	0.93	–	0.93	1.4	9.2	0.0051
CN1CCN(c2ccc(Nc3c(C(=O)C4CC4)cnc4ccc(-c5cnc(C#N)nc5)cc34)cn2)CC1 [Example 469]	0.43	–	0.18	0.99	1.4	0.0015
COc1cc(-c2ccc3ncc(C(=O)C4CC4)c(Nc4ccc(N5CCN(C)CC5)nc4)c3c2)cc(Cl)c1O [Example 470]	0.68	–	0.26	0.56	2.2	0.015
CN1CCN(c2ccc(Nc3c(C(=O)C4CC4)cnc4ccc(-c5cc(F)c(O)c(Cl)c5)cc34)cn2)CC1 [Example 471]	0.14	–	0.14	0.21	2.8	0.011
CN1CCN(c2ccc(Nc3c(C(=O)C4CC4)cnc4ccc(-c5cc(Cl)c(O)c(Cl)c5)cc34)cn2)CC1 [Example 472]	0.11	–	0.3	0.18	5.7	0.023
COc1cc(-c2ccc3ncc(C(=O)C4CC4)c(-c4cnc(N5CCN(C)CC5)nc4)c3c2)cc(Cl)c1O [Example 475, (6-(3-chloro-4-hydroxy-5-methoxyphenyl)-4-(2-(4-methylpiperazin-1-yl)pyrimidin-5-yl)quinolin-3-yl)(cyclopropyl)methanone]	1.9	–	0.53	0.79	4.7	0.072
COc1cc(-c2ccc3ncc(C(=O)C4CC4)c(-c4ccc(C(=O)N5CCN(C)CC5)cc4)c3c2)cc(Cl)c1O [Example 476, (4-(6-(3-chloro-4-hydroxy-5-methoxyphenyl)-3-(cyclopropanecarbonyl)quinolin-4-yl)phenyl)(4-methylpiperazin-1-yl)methanone]	0.5	–	0.23	0.31	2.1	0.0081
COc1cc(-c2ccc3ncc(C(C)=O)c(N4CCN(C(=O)CN(C)C)CC4)c3c2)cc(Cl)c1O [Example 477, 1-(4-(3-acetyl-6-(3-chloro-4-hydroxy-5-methoxyphenyl)quinolin-4-yl)piperazin-1-yl)-2-(dimethylamino)ethanone]	0.3	–	0.87	0.36	4.7	0.0016
CN1CCN(Cc2cccc(-c3c(C(=O)C4CC4)cnc4ccc(-c5cc(Cl)c(O)c(Cl)c5)cc34)c2)CC1 [Example 478, cyclopropyl(6-(3,5-dichloro-4-hydroxyphenyl)-4-(3-((4-methylpiperazin-1-yl)methyl)phenyl)quinolin-3-yl)methanone]	0.75	–	0.53	0.87	2.9	0.0078
CN1CCN(c2ncc(-c3c(C(=O)C4CC4)cnc4ccc(-c5cc(Cl)c(O)c(Cl)c5)cc34)cn2)CC1 [Example 479, cyclopropyl(6-(3,5-dichloro-4-hydroxyphenyl)-4-(2-(4-methylpiperazin-1-yl)pyrimidin-5-yl)quinolin-3-yl)methanone]	1.7	–	0.92	1.7	7.9	0.04
CC(C)C(=O)c1cnc2ccc(-c3cc4cc(O)ccc4[nH]3)cc2c1N[C@H]1CC[C@H](N)CC1 [Example 480]	0.93	–	0.59	2.7	4.6	0.054
COc1cc(-c2ccc3ncc(C(C)=O)c(Nc4ccc(N5CCN(C)CC5)nc4)c3c2)cc(Cl)c1O [Example 483, 1-(6-(3-chloro-4-hydroxy-5-methoxyphenyl)-4-(6-(4-methylpiperazin-1-yl)pyridin-3-ylamino)quinolin-3-yl)ethanone]	0.69	–	0.64	0.64	0.89	0.016
CC(=O)c1cnc2ccc(-c3cc(F)c(O)c(Cl)c3)cc2c1N1CCN(C(=O)CN(C)C)CC1 [Example 484, 1-(4-(3-acetyl-6-(3-chloro-5-fluoro-4-hydroxyphenyl)quinolin-4-yl)piperazin-1-yl)-2-(dimethylamino)ethanone]	0.58	–	1.1	3.4	17	0.0069

Source: patent publication US9120749B2, “Quinoline derivatives and MELK inhibitors containing the same” (ONCOTHERAPY SCIENCE, INC., priority 2010, dated 2015)
